Data set [1] deals with bovine RBCs / B. divergens. Briefly: Growth of B. divergens with CRY-treated bovine RBCs. It counts as cell-based, Babesia divergens. As to conditions: bovine RBCs pre-incubated with 1 and 10 μM CRY for 3 and 6 h, 4 days. The procedure:
To investigate the hemolytic effect of CRY on host (bovine or equine) RBCs, bovine and equine RBCs were incubated with 1 and 10 μM of CRY for 3 and 6 h. The RBCs were washed thrice with phosphate-buffered saline (PBS) and mixed with B. divergens and B. caballi infected RBCs (iRBCs, recovered from −80 °C stock at our laboratory) harvested with a parasitemia of 8% and 3%, respectively and adjusted to 1% parasitemia with fresh RBCs. In a 24-well plate, 100 μl of iRBCs was added to 900 μl of complete medium and the parasite growth was monitored daily by microscopic examination of a Giemsa-stained blood smear for 4 days.

Data set [2] is described as follows: Hematology profiles, body weight and adverse effects of treated B. microti-infected mice. The following applies: CRY administered i.p. It counts as in vivo. On the procedure:
The promising effect of CRY in vitro encouraged us to evaluate its in vivo effects against B. microti in mice. The assay was conducted in accordance with the previously described protocol. In two separate trials, 35 female 8-week-old BALB/c mice, housed under a pathogen-free environment with controlled humidity, temperature (22°C) and a 12 h light/ dark cycle were caged in seven groups, each group consisting of five mice. Six groups were i.p. injected with 0.5 ml of inoculum (1×10^7 B. microti iRBCs), while the seventh group was left uninfected and untreated to act as a negative control. When the average parasitemia in all infected mice reached approximately 1%, the 5-day drug treatment was initiated. […] Parasitemia and hematology profiles (RBCs, hemoglobin (HGB), and HCT) were monitored every 2 and 4 days by microscopic examination and hematology analyzer (Celltac α MEK-6450, Nihon Kohden Corporation, Tokyo, Japan), respectively. […]
The IC50 values of CRY, DA, CF, and AQ were determined using the nonlinear regression curve fit in GraphPad Prism (GraphPad Software Inc., San Diego, CA, USA). Combination index (CI) values for the drug combination were calculated using CompuSyn software, and the degree of synergism was determined as the weighted average of CI values using a formula [(1 x IC50) + (2 x IC75) + (3 x IC90) + (4 x IC95)]/10 [30]. […]

Data set [3] concerns P. berghei. Also on record: method as in PMID 11543688. The following applies: no apparent toxicity; cited from earlier work.

We go through one compound from paper PMC7451656, “In vitro and in vivo growth inhibitory activities of cryptolepine hydrate against several Babesia species and Theileria equi” (PLoS Neglected Tropical Diseases, 2020).

In the case of `Cn1c2c3ccccc3nc-2cc2ccccc21` [CRY, Cryptolepine hydrate], in data set [1], the “multiplication of B. divergens, CRY-treated RBCs versus normal RBCs” value is on record as “did not significantly differ”. For the same compound, the “adverse effects in mice” value in data set [2] is on record as “no apparent adverse effects”. Besides, in data set [3], the “suppression of P. berghei parasitemia in mice” value is 80.5%.
